From patent publication US10646572B2, “Pharmaceutical compositions with enhanced stability” (Foresee Pharmaceuticals Co., Ltd., priority 2006, dated 2020)
Structures can show the parent of a compound that is named as a salt. Where two headings read alike, the source gives them in different places. Blank lines part the entries; values can stand above or below the compound they belong to.

Tests used:
[1] = Molecular weight of PLGA in PLGA/DMSO injectable compositions (GPC); format: physicochemical; settings: DMSO, 4° C., after 16 months
Text: (§1) The injectable compositions were filled into 1.2 mlL polypropylene syringes with luer-lock tips. […] The injectable composition was sampled at pre-defined time points.

[2] = NMP
Procedure: Poly(DL-lactide-co-glycolide) (PLGA) of an 85/15 ratio of lactide to glycolide (DLPLG85/15, IV: 0.28) with a lauryl ester end group was dissolved in N- methyl-2-pyrrolidone (NMP) to give a 50% solution by weight. The leuprolide salts were mixed with the PLGA solution in NMP to give a uniform injectable composition at ratios shown in the Table 1. The injectable compositions were filled into 1.2 mL polypropylene syringes with luer-lock tips. Then the pre-filled syringes were sealed using luer-lock caps. The capped syringes were packaged in a container and sealed in a plastic bag under vacuum and then stored at 4° C. and room temperature (˜22° C.) for up to 18 months. The injectable composition was sampled at 24 h, 1, 2, 3, 6, 12, and 18 month time points. […] Molecular weight of the polymer was determined by gel permeation chromatography (GPC) using polystyrene standards with known molecular weights.

[3] = format: physicochemical
Text: as §1

in vivo = test: in vivo; design: species or system rats; settings: rat, sc
Procedure: Each formulation was then injected into the rats subcutaneously at a volume of about 100 μL with 6 animals per group. The serum samples were collected from each animal at 3 hour, 1, 3, 7, 14, 28, 42, 56, and 70 days post injection. The serum samples were analyzed for leuprolide concentration by ELISA using the kits available from Peninsula Laboratories Inc. The leuprolide remaining in the implants at various times was analyzed by HPLC.

[4] = In vitro release of leuprolide from injectable polymeric formulations (Example 10); format: physicochemical; settings: 6% by weight in PLGA/NMP, PBS pH 7.4, 37° C., FIG. 3
Procedure: Three polymer vehicle solutions were prepared as following: PLG 85/15 (0.28 IV) with a lauryl ester end group was dissolved in NMP at 50% and 55% by weight, and RG503 (0.42 IV) with a carboxylic acid end group was dissolved in NMP at 50% by weight. Then suitable amount of leuprolide hydrochloride (LAHCl) and leuprolide mesylate (LAMS) were mixed with the polymer solutions at 6% by weight each. The formulations were thoroughly mixed to obtain uniform formulations.
(§2) An aliquot of the formulation suspension (about 100 mg) was injected into in 3 mL phosphate buffer saline solution at pH 7.4 with 0.1% sodium azide at 37° C. The receiving fluid was replaced at selected time points with fresh buffer solution, and the removed buffer solution diluted 2-fold with phosphate buffer at pH 7.4 was analyzed for drug concentration by HPLC. The amount released at each time point was calculated.

[5] = cited from earlier work
[6] = Effect of Vitamin E TPGS on in vitro release of leuprolide (Example 11); format: physicochemical; settings: LAHCl 15% in PLA 100DLPL/NMP, PBS pH 7.4, 37° C., FIG. 4
Procedure: The polymer vehicle solutions with and without excipients were prepared as following: PLA 100DLPL (0.26 IV, Lakeshore, Ala.) with a lauryl ester end group and Vitamin E TPGS were dissolved in NMP at suitable amount according to the Table 7. Then suitable amount of leuprolide hydrochloride (LAHCl) was mixed with the polymer solutions at 15% by weight. The formulations were thoroughly mixed to obtain uniform formulations.
as §2, with “diluted 10-fold” for “diluted 2-fold”, “with PBS” for “with phosphate buffer”

decrease of molecular weight of PLGA comparing to blank control [1]: about 40%
decrease of molecular weight of PLGA comparing to blank control ([2]; 4° C., after 6 months): more than 10%
leuprolide degraded [3]: Up to 20%
Compound: CCNC(=O)[C@@H]1CCCN1C(=O)[C@H](CCCNC(=N)N)NC(=O)[C@H](CC(C)C)NC(=O)[C@@H](CC(C)C)NC(=O)[C@H](Cc1ccc(O)cc1)NC(=O)[C@H](CO)NC(=O)[C@H](Cc1c[nH]c2ccccc12)NC(=O)[C@H](Cc1c[nH]cn1)NC(=O)[C@@H]1CCC(=O)N1 [leuprolide acetate, Leuprolide acetate, reference compound]

molecular weight of PLGA versus control [1]: comparable to that of the control
molecular weight of PLGA versus blank control ([2]; both 4° C. and RT, after 12 months): the same as that of the blank control
time at which Cmax was reached (in vivo): 3 h
Cmax (in vivo; Cmax (serum leuprolide)): 662 ng/mL
leuprolide degraded [3]: less than 5%
leuprolide release, LAHCl versus LAMS [4]: no significant difference
Compound: CCNC(=O)[C@@H]1CCCN1C(=O)[C@H](CCCNC(=N)N)NC(=O)[C@H](CC(C)C)NC(=O)[C@@H](CC(C)C)NC(=O)[C@H](Cc1ccc(O)cc1)NC(=O)[C@H](CO)NC(=O)[C@H](Cc1c[nH]c2ccccc12)NC(=O)[C@H](Cc1c[nH]cn1)NC(=O)[C@@H]1CCC(=O)N1 [leuprolide hydrochloride, Leuprolide Hydrochloride]

Cmax (serum leuprolide) (in vivo): 370.6 ng/mL
time at which Cmax was reached (in vivo): 3 h
leuprolide degraded [3]: less than 5%
Compound: CCNC(=O)[C@@H]1CCCN1C(=O)[C@H](CCCNC(=N)N)NC(=O)[C@H](CC(C)C)NC(=O)[C@@H](CC(C)C)NC(=O)[C@H](Cc1ccc(O)cc1)NC(=O)[C@H](CO)NC(=O)[C@H](Cc1c[nH]c2ccccc12)NC(=O)[C@H](Cc1c[nH]cn1)NC(=O)[C@@H]1CCC(=O)N1 [leuprolide mesylate, Leuprolide Mesylate]

Compound: C[C@@H](O)[C@@H]1NC(=O)[C@H](CCCCN)NC(=O)[C@@H](Cc2c[nH]c3ccccc23)NC(=O)[C@H](Cc2ccccc2)NC(=O)[C@@H](NC(=O)[C@H](N)Cc2ccccc2)CSSC[C@@H](C(=O)N[C@H](CO)[C@@H](C)O)NC1=O [octreotide acetate]
octreotide acylated ([5]; combined with polylactide-co-glicolide solution in NMP, within 5 hours): more than 40%
molecular weight of the polymer ([5]; polylactide-co-glicolide solution in NMP, within the same time period (5 hours)): decreased significantly

effect on initial burst [6]: did not affect the initial burst
Compound: Vitamin E TPGS
effect on release rate of leuprolide at later stages [6]: seemed to reduce the release rate of leuprolide at later stages
